Measured values: patent US20240132458A1, “NLRP3 INFLAMMASOME SMALL-MOLECULE INHIBITOR FOR TREATMENT OF ALZHEIMER'S DISEASE” (AJOU UNIVERSITY INDUSTRY-ACADEMIC COOPERATION FOUNDATION, priority 2021, published 2024)
“Also recorded” adds a separate entry of the source. Values belong to the compound of their own block, whether it stands above or below them.

How the values were obtained:
NLRP3, NLRC4 = settings: approximate inhibitory concentration, literature; cited from earlier work
NLRP3 [1] = settings: approximate inhibitory concentration, literature; cited from earlier work
[2] = test system: AD model mice (Aβ1-42 injected); assay: Y-maze test in AD model (spatial working memory); type: in vivo, C57BL/6 mice; settings: 3 days/week, vs vehicle-treated and untreated mice
Description: (§1) 6-week-old male C57BL/6 mice (19 to 22 g) were used, and 5 mice per cage were bred in a feedlot. To create an AD model, experimental animals were administered isoflurane by inhalation, and then injected with Aβ1-42 (5 μL) using a Hamilton microsyringe with a 26-gauge needle. The AD model mice were trained for 20 minutes/mouse for 2 days before the experimental procedure, and then subjected to Y-maze tests and novel object recognition tests (for cognitive evaluation). Behavioral evaluation was performed 7 days after Aβ1-42 injection. The animals were subdivided into AD, NIC7-treated, vehicle (DMSO)-treated, donepezil-treated (positive control) and normal (no-disease) groups. Cognitive evaluation was performed on days 7, 14, 21 and 28 after injection.
The alteration in spatial cognitive behavior was assessed using a Y-maze apparatus with three horizontal identical arms (35 cm long×15 cm high×5 cm wide) symmetrically arranged at 120° to each other. The evaluation was performed in the Y-maze test 7 days after Aβ injection. After introduction into the Y-maze, each animal was allowed to move freely for 2 minutes and then measured for 5 minutes. The test subjects tended to enter an arm different from the arm they had previously visited. The number of arm entries and triads was recorded to calculate the percentage of alternation. […]

[3] = test system: AD model mice (Aβ1-42 injected); assay: Novel object recognition test in AD model; type: in vivo, C57BL/6 mice; settings: vs vehicle-treated or untreated mice
Description: as §1
A novel object recognition test was performed in an open field box containing two identical objects. Animals were first familiarized with these identical objects for 2 minutes, and then one of the objects was replaced with a novel object, followed by reading for 5 minutes. The time spent with an identical object (tA) and the time spent with a novel object (tB) were calculated, and the recognition index ratio was calculated via the formula (tB/(tA+tB))×100.

NLRP3 [4] = target: T1, NLRP3 (Homo sapiens, UniProt Q96P20); assay: Inhibition of NLRP3 by IL-1β secretion level (ELISA); type: cell-based; settings: PMA-differentiated THP-1, LPS (10 ng/mL) 4 hours, compound 1 hour, nigericin (10 μM) 1 hour
T1 construct: THP-1 cells (10^5/well) were differentiated with PMA (80 nM, 48 hours) in a 96-well plate; endogenous in cells; host or cells: PMA-differentiated, LPS-primed THP-1 cells
T1 sequence (Q96P20 whole entry): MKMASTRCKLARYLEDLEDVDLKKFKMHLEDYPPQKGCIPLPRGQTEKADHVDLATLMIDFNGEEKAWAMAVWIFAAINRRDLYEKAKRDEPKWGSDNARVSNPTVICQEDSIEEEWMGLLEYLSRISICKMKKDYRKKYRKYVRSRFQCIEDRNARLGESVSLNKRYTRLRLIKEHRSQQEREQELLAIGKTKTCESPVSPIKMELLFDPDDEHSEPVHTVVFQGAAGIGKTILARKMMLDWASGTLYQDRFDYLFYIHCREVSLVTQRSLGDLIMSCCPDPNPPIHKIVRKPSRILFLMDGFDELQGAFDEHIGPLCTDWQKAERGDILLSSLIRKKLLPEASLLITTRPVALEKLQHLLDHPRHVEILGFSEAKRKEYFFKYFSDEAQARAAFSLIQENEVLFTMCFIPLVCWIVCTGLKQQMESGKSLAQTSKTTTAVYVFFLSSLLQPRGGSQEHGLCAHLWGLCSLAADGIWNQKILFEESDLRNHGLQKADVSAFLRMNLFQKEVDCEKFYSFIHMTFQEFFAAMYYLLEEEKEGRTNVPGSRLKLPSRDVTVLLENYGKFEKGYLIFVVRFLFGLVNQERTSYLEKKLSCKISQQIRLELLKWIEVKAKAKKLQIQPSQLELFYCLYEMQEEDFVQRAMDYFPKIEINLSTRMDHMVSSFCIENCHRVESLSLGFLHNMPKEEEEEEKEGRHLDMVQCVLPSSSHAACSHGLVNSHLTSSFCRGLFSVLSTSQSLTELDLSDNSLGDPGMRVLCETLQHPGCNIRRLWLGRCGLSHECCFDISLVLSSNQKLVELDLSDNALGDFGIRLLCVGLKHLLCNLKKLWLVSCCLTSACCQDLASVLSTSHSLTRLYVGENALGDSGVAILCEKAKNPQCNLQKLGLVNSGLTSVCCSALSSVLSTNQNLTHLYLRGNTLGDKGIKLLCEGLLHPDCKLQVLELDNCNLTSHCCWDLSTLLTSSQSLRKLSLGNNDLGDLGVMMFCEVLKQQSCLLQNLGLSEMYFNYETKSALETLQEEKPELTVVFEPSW
Description: THP-1 cells (10^5/well) were differentiated with PMA (80 nM, 48 hours) in a 96-well plate (BD Biosciences). The differentiated macrophages were primed with LPS (10 ng/mL) for 4 hours. Thereafter, the cells were treated with each compound for 1 hour in a serum-free medium, followed by activation of NLRP3 by nigericin for an additional 1 hour. The supernatant was collected and the inhibition of human IL-1β secretion was analyzed using the Human IL-1β Uncoated ELISA Kit (Thermo Fisher Scientific, Inc.). A microplate spectrophotometer system (Molecular Devices) was employed to read absorbance in the plate.

[5] = test system: NLRP3 signaling pathway (IL-1β, caspase 1); assay: Western blot of the NLRP3 signaling pathway; type: cell-based, human; settings: 10 μM, PMA-differentiated THP-1, LPS/nigericin
Description: Cytoplasmic proteins were extracted using NE-PERTM Nuclear and Cytoplasmic Extraction Reagent (Thermo Fisher Scientific, Inc.), and the total-protein was measured using a Bicinchoninic (BCA) assay kit (Sigma-Aldrich Co.). The proteins were separated by SDS-PAGE and transferred to a membrane using a Mini-PROTEAN Tetra Cell and Mini Trans-Blot Electrophoretic Transfer Cell System (Bio-Rad Laboratories, Hercules, CA, USA). The membranes were blocked with skim milk (5%) for 1 hour, and immunoblotted with antibodies against NLRP3, IL-1β, mature IL-1β (Cell Signaling Technology Inc., Danvers, MA, USA), caspase 1 and β-actin (Santa Cruz Biotechnology Inc., Dallas, TX, USA) at 4° C. overnight. After washing with PBS supplemented with 0.1% of Tween 20, the membranes were treated with a peroxidase-conjugated anti-rabbit or anti-mouse IgG antibody (1:1,000) for 2 hours at room temperature. The SuperSignal West Pico ECL solution (Thermo Fisher Scientific, Inc.) was used to detect protein bands that were visualized on a ChemiDocm Touch Imaging System (Bio-Rad Laboratories).

Microsomal stability = type: in vitro ADME, human; settings: for Microsomal stability (% at 30 min): Human liver microsomes 0.5 mg/mL, 1 μM compound, 37° C.
Description: Stock solutions of NIC7 and NIC7w were prepared at a concentration of 10 mM in DMSO, and were diluted to a concentration of 100 μM with 100% methanol as a working solution. These NIC7 and NIC7w solutions were diluted to a concentration of 1 μM with potassium phosphate buffer (pH 7.4), and then each solution was incubated with 0.5 mg/mL liver microsomes (human) at 37° C. for 5 minutes. The reaction was initiated by adding a NADPH-generating system (3.3 mM glucose-6-phosphate (G6P), 1.3 mM β-NADP^+, 3.3 mM MgCl2, and 0.4 U/mL glucose-6-phosphate dehydrogenase (G6PD)) at 37° C. The reaction was stopped at 0 and 30 minutes using cold acetonitrile containing carbamazepine as an internal standard at 20 ng/mL. After vortexing and centrifugation, the supernatant was analyzed with liquid chromatography with tandem mass spectrometry (LC-MS/MS). All microsomal assays were performed in duplicate.
After sample preparation, 0.1 mL acetonitrile containing 20 ng/mL internal standard was added to a 50 μL aliquot of each biological sample. After vortexing and centrifugation at 12,000 rpm for 10 minutes, 10 μL of the supernatant was analyzed with LC-MS/MS.
In the LC system, a reversed-phase C18 column (BEH C18, 2.1 mm×100 mm i.d., 1.7 μm; Waters, Ireland) was maintained at 4° C. The composition of the mobile phase was changed from 80% of 0.1% formic acid in water to 80% of 0.1% formic acid in acetonitrile for 3 minutes, and then switched to 80% of 0.1% formic acid in water for 3.1 minutes, and maintained at 0.5 at mL/min for 5 minutes. The analytes were monitored on an API5500 triple quadrupole mass spectrometer MS (AB Sciex, Foster City, CA) equipped with a turbo ion spray interface for electrospray ionization and operated in positive ion mode at 5.5 kV and 500° C. at 50 L/min of atomizing gas flow, 50 L/min of turbo ion-spray gas flow, 20 L/min of curtain gas flow, 5.5 kV of ring voltage and 5 Torr of collision gas (nitrogen) pressure. The mass transitions for NIC7, NIC7w and the internal standard were m/z 481.1→165.0 (collision energy, 45 eV), 453.1→165.0 (41.0 eV) and 236.9→194.0 (29 eV), respectively, in the multiple reaction monitoring mode.

CYP1A2 = target: T2, CYP1A2 (Homo sapiens, UniProt P05177); assay: Cytochrome P450 inhibition; type: in vitro ADME; settings: probe phenacetin (O-deethylation), pooled human liver microsomes 0.25 mg/mL, read-out: CYP inhibition (% at 10 μM) 1A2
T2 construct: pooled human liver microsomes were assayed at 0.25 mg/mL concentration; from tissue; host or cells: pooled human liver microsomes
T2 sequence (P05177 1-516): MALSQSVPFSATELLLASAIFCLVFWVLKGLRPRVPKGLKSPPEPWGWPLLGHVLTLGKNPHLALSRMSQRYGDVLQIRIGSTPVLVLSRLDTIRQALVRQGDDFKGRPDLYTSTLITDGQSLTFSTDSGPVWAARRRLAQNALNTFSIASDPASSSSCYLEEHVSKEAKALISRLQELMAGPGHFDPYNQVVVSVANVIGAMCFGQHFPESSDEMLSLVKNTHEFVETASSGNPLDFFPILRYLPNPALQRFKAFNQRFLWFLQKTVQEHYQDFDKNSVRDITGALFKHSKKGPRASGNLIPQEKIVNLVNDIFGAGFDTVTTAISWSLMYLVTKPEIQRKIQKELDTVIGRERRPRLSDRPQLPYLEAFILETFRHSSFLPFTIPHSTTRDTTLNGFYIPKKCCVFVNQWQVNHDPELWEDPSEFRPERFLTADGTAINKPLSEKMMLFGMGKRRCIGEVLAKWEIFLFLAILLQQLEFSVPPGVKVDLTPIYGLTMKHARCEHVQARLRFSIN
Description: (§2) The inhibitory effects of NIC7 and NIC7w on the metabolism of the five major P450 probe substrates were evaluated using a previously reported method (S. Seino, Diabetologia 55, 2096-2108 (2012)) with minor modifications. A cocktail of substrates (phenacetin O-deethylase, tolbutamide 4-hydroxylase, mephenytoin 4-hydroxylase, dextromethorphan O-demethylase, and midazolam 1′-hydroxylase) was used for five major P450 enzymes, CYP1A2, CYP2C9, CYP2C19, CYP2D6, and CYP3A4, respectively. NIC7 and NIC7w were prepared at a concentration of 10 mM in DMSO and dissolved in methanol at a concentration of 1 mM. In all experiments, the final concentration of an organic solvent (methanol) for cocktail incubation was set at 1.0% (v/v). Both NIC7 and NIC7w were used at 10 μM, and pooled human liver microsomes were assayed at 0.25 mg/mL concentration. The substrate cocktail solution was incubated with the microsomes for 5 min at 37° C. The reaction was initiated by adding an NADPH-generating system (the same as described in Examples 1-5) at 37° C. and 1300 rpm. The reaction was stopped at 10 min by the addition of cold acetonitrile containing carbamazepine as an internal standard at 20 ng/mL. After vortexing and centrifugation, the supernatant was analyzed with LC-MS/MS. All microsomal incubations were performed in triplicate.

CYP2C19 = target: T3, CYP2C19 (Homo sapiens, UniProt P33261); assay: Cytochrome P450 inhibition; type: in vitro ADME; settings: probe mephenytoin (4-hydroxylation), pooled human liver microsomes 0.25 mg/mL, read-out: CYP inhibition (% at 10 μM) 2C19
T3 construct: pooled human liver microsomes were assayed at 0.25 mg/mL concentration; from tissue; host or cells: pooled human liver microsomes
T3 sequence (P33261 whole entry): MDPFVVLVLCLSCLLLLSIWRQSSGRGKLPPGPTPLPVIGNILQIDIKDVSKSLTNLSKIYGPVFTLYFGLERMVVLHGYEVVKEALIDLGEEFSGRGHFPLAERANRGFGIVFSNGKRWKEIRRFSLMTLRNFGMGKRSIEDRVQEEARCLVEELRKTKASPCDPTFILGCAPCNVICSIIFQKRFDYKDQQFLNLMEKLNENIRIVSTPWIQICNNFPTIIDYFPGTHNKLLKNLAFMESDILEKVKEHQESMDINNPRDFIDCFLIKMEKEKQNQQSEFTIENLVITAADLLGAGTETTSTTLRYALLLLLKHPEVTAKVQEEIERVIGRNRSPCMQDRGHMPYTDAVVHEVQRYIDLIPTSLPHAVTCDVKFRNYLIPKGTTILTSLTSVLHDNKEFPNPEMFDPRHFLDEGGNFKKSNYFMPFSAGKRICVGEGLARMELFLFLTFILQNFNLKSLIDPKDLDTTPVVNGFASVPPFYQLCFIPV
Description: as §2

CYP2C9 = target: T4, CYP2C9 (Homo sapiens, UniProt P11712); assay: Cytochrome P450 inhibition; type: in vitro ADME; settings: for CYP enzyme selectivity of inhibition: five P450 enzymes, 10 μM; for inhibition at 10 min, 10 µM: probe tolbutamide (4-hydroxylation), pooled human liver microsomes 0.25 mg/mL, tolbutamide, read-out: CYP inhibition (% at 10 μM) 2C9
T4 construct: pooled human liver microsomes were assayed at 0.25 mg/mL concentration; from tissue; host or cells: pooled human liver microsomes
T4 sequence (P11712 whole entry): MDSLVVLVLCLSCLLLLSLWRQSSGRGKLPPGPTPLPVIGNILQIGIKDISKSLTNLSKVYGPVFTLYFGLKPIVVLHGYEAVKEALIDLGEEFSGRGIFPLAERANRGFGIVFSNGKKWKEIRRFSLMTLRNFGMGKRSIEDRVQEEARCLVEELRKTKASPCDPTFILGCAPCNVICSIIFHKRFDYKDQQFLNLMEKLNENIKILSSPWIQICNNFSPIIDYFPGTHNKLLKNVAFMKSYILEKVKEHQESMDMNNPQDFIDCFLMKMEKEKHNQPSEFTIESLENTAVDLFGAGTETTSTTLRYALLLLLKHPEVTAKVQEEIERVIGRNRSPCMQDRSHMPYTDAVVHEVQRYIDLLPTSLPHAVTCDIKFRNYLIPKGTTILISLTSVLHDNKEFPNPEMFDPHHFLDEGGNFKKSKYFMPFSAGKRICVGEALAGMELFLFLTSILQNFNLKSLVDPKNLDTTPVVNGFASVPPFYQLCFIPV
Description: as §2

CYP2D6 = target: T5, CYP2D6 (Homo sapiens, UniProt P10635); assay: Cytochrome P450 inhibition; type: in vitro ADME; settings: probe dextromethorphan (O-demethylation), pooled human liver microsomes 0.25 mg/mL, read-out: CYP inhibition (% at 10 μM) 2D6
T5 construct: pooled human liver microsomes were assayed at 0.25 mg/mL concentration; from tissue; host or cells: pooled human liver microsomes
T5 sequence (P10635 whole entry): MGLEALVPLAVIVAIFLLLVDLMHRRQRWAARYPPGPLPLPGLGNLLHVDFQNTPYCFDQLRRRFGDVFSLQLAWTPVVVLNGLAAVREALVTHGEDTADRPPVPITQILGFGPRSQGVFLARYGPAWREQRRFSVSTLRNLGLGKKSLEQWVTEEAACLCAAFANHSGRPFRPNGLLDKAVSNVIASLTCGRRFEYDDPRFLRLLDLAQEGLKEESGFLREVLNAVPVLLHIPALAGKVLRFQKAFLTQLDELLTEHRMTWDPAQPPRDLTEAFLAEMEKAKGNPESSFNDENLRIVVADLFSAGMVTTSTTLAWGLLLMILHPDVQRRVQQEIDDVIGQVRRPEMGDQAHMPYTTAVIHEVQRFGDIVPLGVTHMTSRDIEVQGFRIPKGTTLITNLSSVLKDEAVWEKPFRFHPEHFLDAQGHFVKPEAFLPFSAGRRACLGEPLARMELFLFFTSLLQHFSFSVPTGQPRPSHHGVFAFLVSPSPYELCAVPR
Description: as §2

CYP3A4 = target: T6, CYP3A4 (Homo sapiens, UniProt P08684); assay: Cytochrome P450 inhibition; type: in vitro ADME; settings: probe midazolam (1′-hydroxylation), pooled human liver microsomes 0.25 mg/mL, read-out: CYP inhibition (% at 10 μM) 3A4
T6 construct: pooled human liver microsomes were assayed at 0.25 mg/mL concentration; from tissue; host or cells: pooled human liver microsomes
T6 sequence (P08684 whole entry): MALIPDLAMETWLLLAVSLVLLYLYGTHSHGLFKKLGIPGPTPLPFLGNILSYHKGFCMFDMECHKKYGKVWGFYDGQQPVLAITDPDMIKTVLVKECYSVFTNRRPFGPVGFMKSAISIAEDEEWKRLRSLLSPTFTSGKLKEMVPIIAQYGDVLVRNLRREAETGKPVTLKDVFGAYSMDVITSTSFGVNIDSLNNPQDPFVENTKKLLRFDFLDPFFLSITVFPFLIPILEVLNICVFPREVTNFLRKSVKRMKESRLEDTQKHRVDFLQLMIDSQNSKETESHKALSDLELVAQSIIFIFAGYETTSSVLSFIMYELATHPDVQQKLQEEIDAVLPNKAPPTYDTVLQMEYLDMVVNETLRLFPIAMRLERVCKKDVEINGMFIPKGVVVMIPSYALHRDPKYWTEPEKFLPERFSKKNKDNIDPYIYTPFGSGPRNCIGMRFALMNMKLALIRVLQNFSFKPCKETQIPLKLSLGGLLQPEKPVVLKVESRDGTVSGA
Description: as §2

Body weight in AD model = type: in vivo, C57BL/6 mice; settings: NIC7 100 nmol/g intraperitoneally; compared to the untreated mice
Description: as §1

[6] = donepezil 1 mg/kg intraperitoneally
[7] = NIC7 100 nmol/g intraperitoneally

Compound: CC1CC(=O)c2s/c(=N\C3CCCCC3)oc2C1 (centres unmarked) [BOT-4-one]
IC50 (NLRP3, NLRC4): 590 to 1280 nM

Compound: O=C(O)c1ccc(/C=C2/SC(=S)N(Cc3cccc(C(F)(F)F)c3)C2=O)cc1 [CY-09]
IC50 (NLRP3 [1]): ~5000 nM

Compound: O=[N+]([O-])/C=C/c1ccc2c(c1)OCO2 [MNS]
IC50 (NLRP3 [1]): ~2000 nM

Compound: Cc1ccc(S(=O)(=O)/C=C/C#N)cc1 [Bay 11-7082]
IC50 (NLRP3, NLRC4): ~5000 nM

Compound: COc1cc2c(cc1OC)C(=O)C(CC1CCN(Cc3ccccc3)CC1)C2 (centres unmarked) [donepezil, reference compound]
Y-maze test, spatial working memory [2, 6]: spent more time in the novel arm
recognition index rate (novel object recognition test) [3, 6]: better

Microsomal stability (% at 30 min) (Microsomal stability): Human: 49.5%
increase of amount of drug remaining after 30 minutes of metabolism compared to NIC7 (Microsomal stability; human liver microsomes): 29.8%
inhibition at 10 min, 10 µM (CYP1A2): < 1%
inhibition at 10 min, 10 µM (CYP2C19): 15.4%
inhibition at 10 min, 10 µM (CYP2C9): 39.4%
inhibition at 10 min, 10 µM (CYP2D6): 9.1%
inhibition at 10 min, 10 µM (CYP3A4): < 1%
Compound: Cc1ccc(S(=O)(=O)Nc2nc3cc(NC(=O)NCc4ccccc4)ccc3s2)cc1 [NIC7w, N-(5-(3-benzylureido)benzo[d]thiazol-2-yl)-4-methylbenzenesulfonamide]
inhibition of IL-1β secretion caused by NLRP3 (NLRP3 [4]): most potent inhibition; also recorded: in a dose-dependent manner, more strongly and significantly than NIC7
inhibition of IL-1β and caspase 1 (Western blot) [5]: inhibition
metabolic stability versus positive control compound (Microsomal stability): better half-life and stability than a positive control compound
CYP enzyme selectivity of inhibition (CYP2C9): acted mainly on CYP2C9 enzyme and hardly acted on other types of CYP enzymes

Compound: NBC6
IC50 (NLRP3 [1]): ~574 nM

Compound: CS(=O)(=O)CCC#N [OLT1177]
IC50 (NLRP3 [1]): ~1000 nM

Microsomal stability (% at 30 min) (Microsomal stability): Human: 19.7%
inhibition at 10 min, 10 µM (CYP1A2): < 1%
inhibition at 10 min, 10 µM (CYP2C19): < 1%
inhibition at 10 min, 10 µM (CYP2C9): 34.2%
inhibition at 10 min, 10 µM (CYP2D6): 9.8%
inhibition at 10 min, 10 µM (CYP3A4): < 1%
Compound: CC(=O)c1cccc(NC(=O)Nc2ccc3sc(NS(=O)(=O)c4ccc(C)cc4)nc3c2)c1 [NIC7, N-(5-(3-(3-acetylphenyl)ureido)benzo[d]thiazol-2-yl)-4-methylbenzenesulfonamide]
inhibition of IL-1β secretion caused by NLRP3 (NLRP3 [4]): highest potency; also recorded: significant inhibition
inhibition of IL-1β and caspase 1 (Western blot) [5]: inhibition
metabolic stability versus positive control compound (Microsomal stability): better half-life and stability than a positive control compound
CYP enzyme selectivity of inhibition (CYP2C9): acted mainly on CYP2C9 enzyme and hardly acted on other types of CYP enzymes
Y-maze test, spatial working memory [2, 7]: spent more time in the novel arm
recognition index rate (novel object recognition test) [3, 7]: better
body weight (Body weight in AD model): significantly increased
